According to US8697837B2, “Substrate for Rpn 11 enzymatic activity” (Onyx Therapeutics, Inc., priority 2005, dated 2014):
Each block holds one compound with its values, some of them ahead of it. Where no end group is shown, it is not given here. Ub4 = N-terminal tetraubiquitin moiety

Columns and labels:
Rpn11 (26S proteasome) [1] = target: T1, Rpn11 (26S proteasome) (Homo sapiens, UniProt O00487); assay: High throughput fluorescence polarization assay of Ub4-peptide(29)-fluorescein proteolysis by 26S proteasome; assay type: biochemical; details: FIG. 5A/5B; 100 nM substrate, 10 nM 26S proteasome, 28 °C, various inhibitor concentrations
T1 construct: To date, a recombinant form of Rpn11 has not been generated
Protocol: Various concentrations (as indicated) of Ub4-peptide(29) coupled to Fluorescein-5-maleimide was incubated with 10 nM 26S proteasome in 50 mM Tris pH 8.0; 10 mM MgCl2; 1 mM DTT; 1 mM ATP at 28° C., and the liberation of peptide(29)-fluorescein was measured by fluorescence polarization (excitation at 485 nm; emission at 510 nm).
FIG. 5A illustrates a high throughput (HTP) FP assay that detects O-phenanthroline inhibition of Rpn11 activity. […] 100 nM Ub4-peptide coupled to fluorescein-5-maleimide was incubated with 10 nM 26S proteasome in 50 mM Tris pH 8.0; 10 mM MgCl2; 1 mM DTT; 1 mM ATP at 28° C. and the liberation of peptide was measured by fluorescence polarization (excitation at 485 nm; emission at 510 nm) in the presence of various concentrations of o-phenanthroline (as indicated).
FIG. 5B illustrates that Rpn11 enzymatic activity is unaffected by the presence of a 20S proteasome inhibitor in the HTP FP assay using a peptide substrate of the application. […] 100 nM Ub4-peptide coupled to fluorescein-5-maleimide was incubated with 10 nM 26S proteasome in 50 mM Tris pH 8.0; 10 mM MgCl2; 1 mM DTT; 1 mM ATP at 28° C. and the liberation of peptide was measured by fluorescence polarization (excitation at 485 nm; emission at 510 nm) in the presence of various concentrations of 20S proteasome inhibitor (as indicated).

Rpn11 (26S proteasome) [2] = target: T1, Rpn11 (26S proteasome); assay: SDS-PAGE assay of Ub4-peptide substrate proteolysis by 26S proteasome; assay type: biochemical; details: for inhibition of proteolysis of the substrate Ub4-peptide(29) and Ub4-peptide-C14(29) by the 26S proteasome: FIG. 1, 60 nM 26S proteasome, 2 h 37 °C, 5 mM ATPγS, 1 mM OPA, 5 μM Ub-aldehyde, SDS-PAGE
Protocol: Each peptide substrate further comprises an N-terminal ubiquitin moiety that has 4 Ub repeats (Ub4). […] 2 μg of Ub4-peptide(29) or Ub4-peptide-C14(29) were incubated with 60 nM 26S proteasome in buffer B [50 mM Tris pH 8.0; 10 mM MgCl2; 1 mM DTT; 1 mM ATP] and where indicated 5 mM ATPγS, 1 mM O-phenanthroline (OPA) and 5 μM ubiquitin aldehyde (Ub-aldehyde) in a volume of 20 μl for 2 hours at 37° C. Reactions were stopped by adding 7.5 μl loading dye and boiled at 100° C. for 5 minutes. Reactions were then loaded on an SDS-PAGE gel, reaction products were separated by electrophoresis and bands were visualized with brilliant blue.
Each peptide substrate further comprises an N-terminal ubiquitin moiety that has 4 Ub repeats (Ub4).

[3] = target: T2, chymotryptic-like activity of the 20S proteasome (Homo sapiens, UniProt P20618+P28074); assay: Example 2 screen: liberation of AMC from LLVY-AMC; assay type: biochemical; details: substrate LLVY-AMC; method of Example 2
T2 construct: 26S proteasome purified from humans and purchased from BioMol; purchased BioMol
Protocol: (§1) 4) 26S proteasome purified from humans and purchased from BioMol;
(§2) 5 μl of compound [30 μM compound in Buffer A+1% DMSO], 5 μl of substrate [30 nM Ub4-pep-C14(29)-Oregon Green and 15 μM LLVY-AMC in Buffer A] and 5 μl enzyme [1.5 nM 26S proteasomes] were mixed in a 384 well plates and incubated at 28° C. for 75 minutes. Reactions were stopped with the addition of […] 20S inhibitor (PR-171) and 4 mM EDTA. Processing of the 20S substrate LLVY-AMC to liberate AMC was determined by measuring the AMC fluorescence [excitation at 340 nm; emission at 465 nm]. Processing of the 19S substrate Ub4-pep-C14(29)-Oregon Green to liberate pep-C14(29)-Oregon Green was determined by measuring the fluorescence polarization of Oregon Green [excitation at 485 nm; emission at 535 nm].
Modulators of the 20S proteasome activity affect liberation of AMC from LLVY-AMC (second non-ubiquitinated substrate) and affect the chymotryptic-like activity of the 20S proteasome.

19S proteasome = assay: Example 2 screen: liberation of pep-C14(29)-Oregon Green from Ub4-pep-C14(29)-Oregon Green (fluorescence polarization); assay type: biochemical, human; details: method of Example 2
Protocol: as §1, §2
Modulators of the 19S proteasome activity affect liberation of pep-C14(29)-Oregon Green from Ub4-pep-C14(29)-Oregon Green (first ubiquitinated substrate).

Ub4-pep-C14(29) = assay: Intrinsic fluorescence of ubistatin A on incubation with Ub4-pep-C14(29); assay type: binding; details: 2.5 μM ubistatin A with 2.5 μM Ub4-pep-C14(29); excitation 350 nm, emission 450 nm
Excerpt: A test agent that binds ubiquitin can affect the binding of ubistatin A (C92) to Ub4-pep-C14(29). This can be determined by measuring the intrinsic fluorescence of ubistatin A (C92) [excitation at 350 nm; emission at 450 nm] with Ub4-pep-C14(29) in the presence or absence of a test agent, which is a competition assay between ubistatin A and the test agent for binding to the ubiquitin.

[4] = target: ubiquitin or polyubiquitin chains (Homo sapiens, UniProt P0CG48); details: cited from earlier work
Rpn11 = Rpn11 (Saccharomyces cerevisiae, UniProt P43588); details: purified 26S proteasome complex; cited from earlier work
[5] = FIG. 2, 60 nM 26S proteasome from source A
[6] = FIG. 2, 60 nM 26S proteasome from source B

Rpn11, sequence (P43588 whole entry): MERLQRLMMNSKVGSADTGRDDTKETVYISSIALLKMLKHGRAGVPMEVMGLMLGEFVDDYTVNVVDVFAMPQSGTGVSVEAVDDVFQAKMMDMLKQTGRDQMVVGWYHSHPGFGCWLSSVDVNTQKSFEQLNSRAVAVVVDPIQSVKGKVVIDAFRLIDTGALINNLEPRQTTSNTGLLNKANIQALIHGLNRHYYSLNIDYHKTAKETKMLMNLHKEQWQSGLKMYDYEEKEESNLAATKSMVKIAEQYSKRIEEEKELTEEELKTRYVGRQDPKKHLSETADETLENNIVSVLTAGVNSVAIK

Compound: Nc1ncnc2c1ncn2[C@@H]1O[C@H](COP(=O)(O)OP(=O)(O)OP(O)(O)=S)[C@@H](O)[C@H]1O [ATPγS]
- inhibition of proteolysis of the substrate Ub4-peptide(29) and Ub4-peptide-C14(29) by the 26S proteasome (Rpn11 (26S proteasome) [2]): inhibited
- inhibition of proteolysis of the substrate Ub4-peptide-C14(14) (Rpn11 (26S proteasome) [2]; [5]): inhibited
- inhibition of proteolysis of the substrate Ub4-peptide-C14(14) (Rpn11 (26S proteasome) [2]; [6]): not

Compound: O=C(c1ccc(CSc2ccc(-c3ccc(-c4ccccc4)cc3)nn2)o1)N1CCCC1 [Compound 4]
- processing of the substrate Ub4-pep-C14(29)-Oregon Green by the 19S proteasome (19S proteasome): prevents

Compound: O=C(Nc1ccc(/C=C/c2ccc(NC(=O)c3cc(S(=O)(=O)O)c4cccnc4c3O)cc2S(=O)(=O)O)c(S(=O)(=O)O)c1)c1cc(S(=O)(=O)O)c2cccnc2c1O [Ubistatin A]
- intrinsic fluorescence of ubistatin A (C92) (Ub4-pep-C14(29)): increases several fold
- intrinsic fluorescence detected from Compound 92 on binding to a protein substrate [4]: increases

Compound: ubiquitin vinylsulphone
- sensitivity of the deubiquitinating activity associated with Rpn11 (Rpn11): insensitivity

Compound: Ub4-peptide-C14(14): peptide of SEQ ID NO:15 with S14 changed to C14 and an N-terminal Ub4 moiety; Rpn11 substrate (Ub4-MQIFVKTLRANSSC)
- effect of changing S14 to C14 on substrate's ability to be recognized and cleaved by Rpn11 (Rpn11 (26S proteasome) [2]; FIG. 2, SEQ ID NO:15, N-terminal Ub4): does not alter

Further lines, with some results ahead:

- effect on kinetics of Ub4-peptide(29)-fluorescein proteolysis by the 26S proteasome (Rpn11 (26S proteasome) [1]): affects
- inhibition of proteolysis of the substrate Ub4-peptide(29) and Ub4-peptide-C14(29) by the 26S proteasome (Rpn11 (26S proteasome) [2]): inhibited
- inhibition of proteolysis of the substrate Ub4-peptide-C14(14) (Rpn11 (26S proteasome) [2]; [5]): inhibited
- inhibition of proteolysis of the substrate Ub4-peptide-C14(14) (Rpn11 (26S proteasome) [2]; [6]): not
Compound: c1cnc2c(c1)ccc1cccnc12 [o-phenanthroline, 1,10-phenanthroline]

- effect on the chymotryptic-like activity of the 20S proteasome [3]: affect
Compound: COc1cccc(OC)c1C(=O)N1CCC(c2nc(-c3ccc(Br)cc3)no2)CC1 [Compound 1]

- effect on the chymotryptic-like activity of the 20S proteasome [3]: affect
Compound: CC(C)c1cc(OC(=O)c2cc(C(F)(F)F)cc(C(F)(F)F)c2)n(-c2ccc([N+](=O)[O-])cc2)n1 [Compound 3]

- effect on the chymotryptic-like activity of the 20S proteasome [3]: affect
Compound: COc1cccc(OC)c1C(=O)N1CCC(c2nc(-c3ccc(C)cc3)no2)CC1 [Compound 2]

- inhibition of proteolysis of the substrate Ub4-peptide(29) and Ub4-peptide-C14(29) by the 26S proteasome (Rpn11 (26S proteasome) [2]): not
Compound: ubiquitin aldehyde
- sensitivity of the deubiquitinating activity associated with Rpn11 (Rpn11): insensitivity
